Source: ChEMBL document CHEMBL3632577, “Lead optimization of the VU0486321 series of mGlu1 PAMs. Part 1: SAR of modifications to the central aryl core” (Bioorg Med Chem Lett, 2015)

Legend:
[1] = target: T1, Metabotropic glutamate receptor 1 (Homo sapiens, UniProt Q13255); experiment: Positive allosteric modulation of human mGluR1 by calcium mobilization assay relative to control; type: functional
Target sequence in this assay (Q13255 19-1194 limits assumed): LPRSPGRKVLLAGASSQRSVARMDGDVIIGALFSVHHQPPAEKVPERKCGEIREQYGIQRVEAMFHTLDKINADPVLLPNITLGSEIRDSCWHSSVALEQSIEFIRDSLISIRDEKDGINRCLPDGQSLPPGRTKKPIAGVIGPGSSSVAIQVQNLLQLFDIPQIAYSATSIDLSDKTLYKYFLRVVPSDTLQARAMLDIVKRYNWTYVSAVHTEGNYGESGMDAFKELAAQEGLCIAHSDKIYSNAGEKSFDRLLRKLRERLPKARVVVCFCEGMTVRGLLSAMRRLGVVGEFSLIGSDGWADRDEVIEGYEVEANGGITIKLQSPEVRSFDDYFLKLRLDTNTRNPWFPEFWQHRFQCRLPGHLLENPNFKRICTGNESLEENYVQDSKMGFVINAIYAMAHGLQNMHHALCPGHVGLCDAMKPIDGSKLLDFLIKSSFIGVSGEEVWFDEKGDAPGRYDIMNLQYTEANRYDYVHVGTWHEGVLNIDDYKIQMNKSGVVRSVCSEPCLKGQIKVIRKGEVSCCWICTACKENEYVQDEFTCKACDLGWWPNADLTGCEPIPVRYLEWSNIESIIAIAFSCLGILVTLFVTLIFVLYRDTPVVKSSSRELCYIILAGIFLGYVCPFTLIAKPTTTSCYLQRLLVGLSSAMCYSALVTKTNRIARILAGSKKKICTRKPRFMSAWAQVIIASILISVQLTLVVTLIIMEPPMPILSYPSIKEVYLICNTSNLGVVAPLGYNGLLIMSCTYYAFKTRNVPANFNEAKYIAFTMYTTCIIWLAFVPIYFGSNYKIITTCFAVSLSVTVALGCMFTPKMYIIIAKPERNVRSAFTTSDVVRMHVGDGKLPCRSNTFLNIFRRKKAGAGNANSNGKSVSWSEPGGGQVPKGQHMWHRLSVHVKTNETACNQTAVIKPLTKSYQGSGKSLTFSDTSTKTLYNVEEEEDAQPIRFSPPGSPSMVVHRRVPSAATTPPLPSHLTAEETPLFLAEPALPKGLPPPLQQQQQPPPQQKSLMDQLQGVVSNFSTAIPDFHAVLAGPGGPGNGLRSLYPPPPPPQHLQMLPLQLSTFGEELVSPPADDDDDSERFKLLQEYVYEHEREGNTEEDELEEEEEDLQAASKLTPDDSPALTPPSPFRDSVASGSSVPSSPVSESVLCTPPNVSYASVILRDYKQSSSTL

[2] = target: T1, Metabotropic glutamate receptor 1; experiment: Positive allosteric modulation of human mGluR1 by calcium mobilization assay; type: functional
Target sequence in this assay (Q13255 whole entry): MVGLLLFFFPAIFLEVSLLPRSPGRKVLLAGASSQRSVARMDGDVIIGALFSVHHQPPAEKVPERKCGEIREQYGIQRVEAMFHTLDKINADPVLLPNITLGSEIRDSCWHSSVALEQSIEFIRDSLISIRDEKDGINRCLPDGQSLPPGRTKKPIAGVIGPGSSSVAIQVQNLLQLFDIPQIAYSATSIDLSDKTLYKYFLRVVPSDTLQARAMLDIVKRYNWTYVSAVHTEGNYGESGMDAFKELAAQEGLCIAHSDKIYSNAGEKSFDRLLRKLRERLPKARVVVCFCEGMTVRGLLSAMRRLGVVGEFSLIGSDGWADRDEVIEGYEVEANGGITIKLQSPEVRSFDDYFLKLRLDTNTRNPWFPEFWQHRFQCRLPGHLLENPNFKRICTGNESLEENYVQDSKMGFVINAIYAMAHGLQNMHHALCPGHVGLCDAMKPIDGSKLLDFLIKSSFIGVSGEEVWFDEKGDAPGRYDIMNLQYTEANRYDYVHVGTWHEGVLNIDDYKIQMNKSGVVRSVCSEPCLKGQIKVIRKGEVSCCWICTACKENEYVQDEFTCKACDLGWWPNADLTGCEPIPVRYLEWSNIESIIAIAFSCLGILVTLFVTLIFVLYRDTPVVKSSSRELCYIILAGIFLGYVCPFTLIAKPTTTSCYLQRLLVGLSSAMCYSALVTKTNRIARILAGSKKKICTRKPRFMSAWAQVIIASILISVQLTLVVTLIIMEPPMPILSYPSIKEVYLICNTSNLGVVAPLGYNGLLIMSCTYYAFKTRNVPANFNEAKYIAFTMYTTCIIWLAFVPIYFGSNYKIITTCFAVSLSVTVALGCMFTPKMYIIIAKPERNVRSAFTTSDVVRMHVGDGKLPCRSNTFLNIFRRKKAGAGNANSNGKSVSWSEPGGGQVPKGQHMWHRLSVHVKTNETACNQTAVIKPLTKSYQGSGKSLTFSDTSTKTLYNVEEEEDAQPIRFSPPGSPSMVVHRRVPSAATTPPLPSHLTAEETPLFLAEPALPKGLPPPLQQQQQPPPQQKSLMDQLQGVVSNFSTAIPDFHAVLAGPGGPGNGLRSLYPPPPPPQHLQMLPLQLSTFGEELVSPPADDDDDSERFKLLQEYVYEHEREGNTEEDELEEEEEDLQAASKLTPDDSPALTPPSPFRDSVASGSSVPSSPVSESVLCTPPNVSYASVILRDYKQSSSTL

[3] = target: T2, Metabotropic glutamate receptor 4 (Homo sapiens, UniProt Q14833); experiment: Positive allosteric modulation of human mGluR4 by calcium mobilization assay; type: functional
[4] = target: T2, Metabotropic glutamate receptor 4; experiment: Positive allosteric modulation of human mGluR4 by calcium mobilization assay relative to PHCCC; type: functional
Homo sapiens = organism: Homo sapiens; experiment: Selectivity ratio of EC50 for human mGluR4 to EC50 for human mGluR1

T2 sequence (Q14833 whole entry): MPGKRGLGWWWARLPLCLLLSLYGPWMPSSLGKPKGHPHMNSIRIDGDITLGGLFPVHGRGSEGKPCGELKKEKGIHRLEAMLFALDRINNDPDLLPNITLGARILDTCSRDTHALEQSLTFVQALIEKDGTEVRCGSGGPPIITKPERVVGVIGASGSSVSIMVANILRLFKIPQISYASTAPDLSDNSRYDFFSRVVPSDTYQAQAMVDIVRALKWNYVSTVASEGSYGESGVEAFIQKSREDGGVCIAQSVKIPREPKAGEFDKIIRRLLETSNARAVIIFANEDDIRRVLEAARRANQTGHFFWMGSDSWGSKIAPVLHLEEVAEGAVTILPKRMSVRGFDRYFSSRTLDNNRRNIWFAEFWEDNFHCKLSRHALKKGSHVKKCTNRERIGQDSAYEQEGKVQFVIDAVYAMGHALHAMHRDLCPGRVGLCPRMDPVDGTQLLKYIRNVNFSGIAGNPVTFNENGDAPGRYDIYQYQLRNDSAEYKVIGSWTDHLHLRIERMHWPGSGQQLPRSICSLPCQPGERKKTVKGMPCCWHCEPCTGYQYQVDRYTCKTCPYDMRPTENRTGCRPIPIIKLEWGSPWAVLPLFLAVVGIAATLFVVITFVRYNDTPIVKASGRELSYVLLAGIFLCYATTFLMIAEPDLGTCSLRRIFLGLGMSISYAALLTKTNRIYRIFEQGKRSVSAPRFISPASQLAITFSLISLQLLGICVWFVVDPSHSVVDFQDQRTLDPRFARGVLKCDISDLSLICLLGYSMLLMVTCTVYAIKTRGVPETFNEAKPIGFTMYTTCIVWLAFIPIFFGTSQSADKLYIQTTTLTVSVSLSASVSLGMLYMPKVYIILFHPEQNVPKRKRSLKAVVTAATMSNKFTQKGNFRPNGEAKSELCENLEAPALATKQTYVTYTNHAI

Row | SMILES | %max [1] [%] | EC50 [2] [nM] | EC50 ([2]; read-out: EC50) [nM] | EC50 [3] [nM] | %max [4] [%] | Ratio EC50 (Homo sapiens)
1 | Cc1ccoc1C(=O)Nc1ccc(N2C(=O)c3cccc(C)c3C2=O)cc1 | 108 | 16.2 | 16 | 350 | 62 | 21.7
2 | Cc1cc(NC(=O)c2occc2C)ccc1N1C(=O)c2cccc(Cl)c2C1=O | 117 | 49 | 49 | 1010 | 127 | 20.5
3 | Cc1ccoc1C(=O)Nc1ccc(N2C(=O)c3cccc(F)c3C2=O)c(F)c1 | 104 | 34.7 | 35 | 674 | 78 | 19.3
4 | Cc1ccoc1C(=O)Nc1cnc(N2C(=O)c3cccc(Cl)c3C2=O)nc1 | 84 | 209 | 208 | 2530 | 45 | 12.2
5 | Cc1ccoc1C(=O)Nc1ccc(N2C(=O)c3cccc(Cl)c3C2=O)cc1 | 101 | 28.8 | 29 | 483 | 35 | 16.7
6 | Cc1cc(N2C(=O)c3ccccc3C2=O)ccc1NC(=O)c1occc1C | 90 | 15.1 | 15 | 609 | 52 | 40.6
7 | Cc1ccoc1C(=O)Nc1ccc(N2C(=O)c3ccccc3C2=O)c(F)c1 | 101 | 22.4 | 22 | 265 | 65 | 11.9
8 | Cc1ccoc1C(=O)Nc1ccc(N2C(=O)c3ccccc3C2=O)c(C(F)(F)F)c1 | 108 | 123 | 123 | 6660 | 86 | 54.1
9 | Cc1ccoc1C(=O)Nc1ccc(N2C(=O)c3cccc(Cl)c3C2=O)c(C(F)(F)F)c1 | 105 | 105 | 106 | 2470 | 120 | 23.3
10 | Cc1ccoc1C(=O)Nc1ccc(N2C(=O)c3cccc(C)c3C2=O)nc1 | 105 | 95.5 | 95 | 5000 | 100 | 52.7
11 | Cc1ccoc1C(=O)Nc1ccc(N2C(=O)c3cccc(Cl)c3C2=O)c2ccccc12 | 92 | 22.4 | 23 | 513 | 102 | 22.8
12 | Cc1ccoc1C(=O)Nc1cnc(N2C(=O)c3cccc(F)c3C2=O)nc1 | 99 | 5370 | 5330 | > 10000 | 24 | –
13 | Cc1ccoc1C(=O)Nc1ccc(N2C(=O)c3cccc(C)c3C2=O)c(F)c1 | 107 | 26.3 | 26 | 287 | 102 | 11
14 | Cc1ccoc1C(=O)Nc1ccc(N2C(=O)c3ccccc3C2=O)cc1 | 82 | 47.9 | 48 | > 10000 | – | –
15 | Cc1ccoc1C(=O)Nc1ccc(N2C(=O)c3cccc(C)c3C2=O)c(C(F)(F)F)c1 | 117 | 537 | 530 | 5760 | 109 | 10.8
16 | COc1cc(NC(=O)c2occc2C)ccc1N1C(=O)c2ccccc2C1=O | 96 | 46.8 | 46 | 1180 | 50 | 25.6
17 | Cc1ccoc1C(=O)Nc1ccc(N2C(=O)c3cccc(F)c3C2=O)cc1 | 96 | 43.7 | 44 | 382 | 34 | 8.6
18 | Cc1ccoc1C(=O)Nc1ccc(N2C(=O)c3ccccc3C2=O)cn1 | – | > 10000 | > 10000 | > 10000 | – | –

Row | SMILES | %max [1] [%] | EC50 [2] [nM] | EC50 ([2]; read-out: EC50) [nM] | EC50 [3] [nM] | %max [4] [%] | Ratio EC50 (Homo sapiens)
19 | Cc1ccoc1C(=O)Nc1ccc(N2C(=O)c3ccccc3C2=O)cc1C(F)(F)F | – | > 10000 | > 10000 | > 10000 | – | –
20 | Cc1ccoc1C(=O)Nc1cnc(N2C(=O)c3cccc(C)c3C2=O)nc1 | 111 | 759 | 751 | 4470 | 104 | 5.95
21 | Cc1ccoc1C(=O)Nc1ccc(N2C(=O)c3ccccc3C2=O)c2ccccc12 | 99 | 20.4 | 20 | 353 | 54 | 17.4
22 | Cc1ccoc1C(=O)Nc1ccc(N2C(=O)c3ccccc3C2=O)nc1 | 80 | 389 | 387 | > 10000 | – | –
23 | Cc1ccoc1C(=O)Nc1ncc(N2C(=O)c3ccccc3C2=O)cn1 | – | > 10000 | > 10000 | > 10000 | – | –
24 | Cc1ccoc1C(=O)Nc1ccc(N2C(=O)c3cccc(C)c3C2=O)c2ccccc12 | 88 | 15.8 | 16 | 429 | 103 | 27.3
25 | Cc1cc(NC(=O)c2occc2C)ccc1N1C(=O)c2ccccc2C1=O | 105 | 89.1 | 89 | 885 | 75 | 9.9
26 | COc1cc(NC(=O)c2occc2C)ccc1N1C(=O)c2cccc(Cl)c2C1=O | 93 | 18.2 | 18 | 647 | 103 | 36.1
27 | Cc1ccoc1C(=O)Nc1ccc(N2C(=O)c3cccc(F)c3C2=O)c(C(F)(F)F)c1 | 110 | 155 | 155 | 2870 | 80 | 18.5
28 | Cc1cc(NC(=O)c2occc2C)ccc1N1C(=O)c2cccc(C)c2C1=O | 100 | 21.4 | 21 | 422 | 122 | 19.8
29 | Cc1ccoc1C(=O)Nc1ccc(N2C(=O)c3cccc(F)c3C2=O)nc1 | 93 | 200 | 198 | 3550 | 19 | 17.9
30 | COc1cc(NC(=O)c2occc2C)ccc1N1C(=O)c2cccc(F)c2C1=O | 103 | 145 | 144 | 1930 | 73 | 13.4
31 | Cc1ccoc1C(=O)Nc1ccc(N2C(=O)c3cccc(Cl)c3C2=O)c(F)c1 | 100 | 27.5 | 28 | 264 | 93 | 9.5
32 | Cc1ccoc1C(=O)Nc1ccc(N2C(=O)c3cccc(F)c3C2=O)c2ccccc12 | 90 | 19.5 | 20 | 809 | 83 | 41.1
33 | COc1cc(N2C(=O)c3ccccc3C2=O)ccc1NC(=O)c1occc1C | 80 | 331 | 330 | > 10000 | – | –
34 | Cc1ccoc1C(=O)Nc1cnc(N2C(=O)c3ccccc3C2=O)nc1 | 89 | 4680 | 4610 | 4670 | 23 | 1.01
35 | Cc1ccoc1C(=O)Nc1ccc(N2C(=O)c3cccc(Cl)c3C2=O)nc1 | 91 | 34.7 | 35 | 1110 | 44 | 31.9
